# In US11306100B2, “Spirooxindole compounds as GSK3B inhibitors and process for preparation thereof” (COUNCIL OF SCIENTIFIC & INDUSTRIAL RESEARCH, priority 2017, dated 2022):
# Experiments:
# PANC-1 cells [1] = test: Cell cycle analysis / cell death by PI uptake, flow cytometry; type: cell-based; settings: for cell death by FACS: 25 uM compound; for cell death (% of cells in subG1): in combination with TRAIL versus compounds alone or TRAIL alone
# Description: To determine effect of GSK3β inhibitors on cell death and/or cell cycle progression, PANC-1 cells were treated with identified molecules with or without TRAIL. Upon treatment with compounds in combination with TRAIL, PANC-1 cell death was determined with propidium iodide (PI) uptake measured by Flow cytometry. Treated cells were harvested in cold PBS and fixed in 70% ethanol at −20° C. for overnight. The fixed cells were by centrifugation and re-suspended in PI ([…]) solution containing RNase (0.1 mg/mL) and Triton X-100 (0.05%). The cells were incubated in dark for 1 h at room temperature. The excess PI was washed out using PBS, the resultant PI uptake was analyzed by FACS Caliber System (BD Bio-science, Erembodegem, Belgium) in an FL-2 fluorescence detector (10000 events were recorded for each condition). Flow cytometry data was analyzed using FCS express 4 software (De Novo Software, Los Angeles, Calif., USA).
# recombinant GSK3β = recombinant GSK3β (Homo sapiens, UniProt P49841); test: ADP-Glo kinase assay of GSK3β activity; type: biochemical; settings: for IC50: GSK3β kinase activity, 2 μM ATP
# recombinant GSK3β, sequence (P49841 whole entry): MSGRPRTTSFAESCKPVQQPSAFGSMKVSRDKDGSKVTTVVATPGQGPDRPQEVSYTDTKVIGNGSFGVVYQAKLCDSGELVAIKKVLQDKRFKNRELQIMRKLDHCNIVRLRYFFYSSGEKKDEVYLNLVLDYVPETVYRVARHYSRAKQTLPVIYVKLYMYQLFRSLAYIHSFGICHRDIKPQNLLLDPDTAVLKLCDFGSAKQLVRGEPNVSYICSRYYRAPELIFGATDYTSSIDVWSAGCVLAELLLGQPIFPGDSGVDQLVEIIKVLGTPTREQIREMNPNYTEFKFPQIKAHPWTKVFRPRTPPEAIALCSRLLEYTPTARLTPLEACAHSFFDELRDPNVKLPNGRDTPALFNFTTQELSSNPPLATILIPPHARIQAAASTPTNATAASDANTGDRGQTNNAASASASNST
# Description: Activity of recombinant GSK3β is measured using ADP-Glo Kinase assay according to supplier's standard protocol with minor modifications in 384 well format. Briefly, kinase reaction mixture was prepared by adding […] of recombinant enzyme, 2 μM ATP, 1 μg of enzyme substrate along with test compound or DMSO to a final volume of 5 μl. The kinase reaction was performed by incubating the mixture at room temperature for 17 mins. To correct reaction back ground a substrate blank reaction was also performed. ADP glow reagent (equal volume to reaction mixture) was added to the reaction mixture to deplete any unused ATP added to the kinase reaction and incubated at further 40 min at 27° C. Then 10 μl of kinase detection reagent was added followed by incubation for 30 min at 27° C. to convert ADP to ATP and introduce luciferase to measure kinase activity. The luminescence was measured using luminometer (Perkin Elmer) which is directly proportional to ADP generated in kinase reaction. To determine the amount of ADP produced in kinase reaction and calculate specific activity of the enzyme, a conversion curve is prepared by serial dilution of ADP and ATP mixture. Specific activity of the GSK3β was calculated using the following equation. (ADP(kinase reaction)−ADP(substrate blank)) in mmol)/(Reaction time in min)×(GSK3β in mg).
# [2] = test system: cellular GSK3β signalling in PANC-1 cells; test: Western blot of GSK3β signalling and NFkB target proteins in PANC-1 cells; type: cell-based; settings: for phosphorylation of GSK3β: PANC-1 cells treated with compound; for β-catenin level: PANC-1 cells versus control (DMSO); for BCL2 and XIAP levels: compound with TRAIL versus TRAIL alone or compound alone; for bcl2 and xiap expression: dose dependence of compound; for Cyclin D1 levels / phosphorylation of GSK3β (9th serine residue): in combination with TRAIL; for p-GS (phosphorylated glycogen synthase) level: increasing concentrations of compound, total GS unaffected
# Description: The compounds inhibiting GSK3β activity in-vitro added to PANC-1 cells to determine their potential against intracellular GSK3β signalling pathways in cancer cells. Briefly, PANC-1 cells were plated in 60 mm plates (100,000 cells/4 mL) and cultured in the standard DMEM medium containing 10% serum. After culturing for 18 hrs, different concentrations of test compounds or standard controls prepared in DMSO were added to culture media to achieve final concentration 0 to 100 μM of compound to cells. Cells were further continued to grow for 48 h with constant supply of 5% CO2 in humid incubator. The time course (0 to 48 h) experiment was carried out simultaneously with fixed concentration of compound showing 50% growth inhibition. At the end of the experiments, all cells were scraped directly in cold PBS and washed for 3 times before lysis directly in 2D lysis buffer (8M urea, 2M thiourea, 4% CHAPS, 4 mM tris base and 65 mM DTT) for isolation of proteins to perform western blots. The protein concentration was determined by modified Bradford assay.
# To perform western blot, protein extracts were separated on 12% SDS-PAGE and electrophoretically (1 mA/cm^2 membrane for 1 hr) transferred onto the nitrocellulose membrane by semi-dry method. After protein transfer, membrane was stained with Ponceau S solution (0.2% Ponceau S in 3% Trichloroacetic acid) for 2 min to see efficiency of electrophoretic transfer. The membrane was destained in ddH2O to visualize the protein bands and further destained with TBST (20 mM Tris, 138 mM NaCl, pH 7.6 and 0.1% Tween 20) for blotting. To avoid non-specific detection of target proteins, blotted membranes were blocked with BSA (3% BSA in TBST solution). All antibodies against specific protein targets of interest were purchased from Cell Signaling Technology, USA if not mentioned specifically. Then the blots were incubated with antibodies prepared in blocking buffer (1:1000 Antibody to blocking buffer dilution) for 18 h with constant shaking at 4° C. Three washing steps in PBS each for 5 mins removed the excess and non-specific antibodies. For visualization, blots were incubated with secondary antibody conjugated to either horseradish peroxidase or alkaline phosphatase [anti-(mouse IgG) or anti-(rabbit IgG), diluted 1:5000 in TBST] for 1 h at room temperature. After three washes in PBS, the reaction was developed either by addition of LumiGLO substrate (Cell Signaling Technology) followed by capturing on X-ray film or addition of chromogenic NBT (nitro-blue tetrazolium chloride) and BCIP (5-bromo-4-chloro-3′-indolyphosphate p-toluidine salt) substrate for alkaline phosphatase developing purple colored bands. The blots were scanned for densitometry performed using Image-J program.
# PANC-1 cells [3] = test: Cell viability, Sulforhodamine B assay; type: cell-based; settings: for inhibition at 30 µM: Homo sapiens, PANC-1, 30 μM compound in combination with TRAIL (10 ηg/mL), read-out: inhibition of cell growth; for effectiveness against cell growth / sensitisation to TRAIL: in combination with TRAIL (10 ηg/mL), FIG. 3A
# Description: Cell viability was measured using Sulforhodamine B assay. The cytotoxic effect of the compounds with GSK3β inhibitory potential was tested against PANC-1 cells. Initially, the PANC-1 cells were seeded in flat bottom 96-well plate (5000 cells/100 μL) in complete medium and cultured for 18 hrs under standard conditions. After 18 h the cells were treated with either the different concentration of compounds, standard drugs or DMSO as solvent control. The final DMSO concentration to cells was maintained <2% in all cytotoxic assays. Each compound was tested in triplicate and the cytotoxicity was determined as the average of that triplicate. Further, the plates were incubated for another 48 h in an incubator maintained at 37° C. with a constant supply of 5% CO2. The cells were fixed using 10% TCA and incubated for 1 h at 4° C. Then the plates were rinsed carefully with MQ water and air dried at room temperature. To all the wells of MTP plate 0.057% SRB solution was added and kept for approximately 30 min before it was rinsed off using 1% acetic acid. The plates were then air dried and 100 μL of 10 mM tris base was added to each well to solubilize the SRB before absorbance was measured at 510 nm. The measure of absorbance is directly proportional to cell growth and is thus used to calculate % reduction in the rate of cell proliferation according to control DMSO treated cells. All experiments were performed in triplicates; mean % age proliferation values with ±SD were plotted here.
Compound,cell death by FACS (PANC-1 cells [1]),cell death (% of cells in subG1) (PANC-1 cells [1]),inhibition of GSK3β in in-vitro kinase assays (recombinant GSK3β),IC50 (recombinant GSK3β),phosphorylation of GSK3β [2],β-catenin level [2],BCL2 and XIAP levels [2],bcl2 and xiap expression [2],Cyclin D1 levels [2],phosphorylation of GSK3β (9th serine residue) [2],p-GS (phosphorylated glycogen synthase) level [2],inhibition at 30 µM (PANC-1 cells [3]),effectiveness against cell growth / sensitisation to TRAIL (PANC-1 cells [3])
"CCOC(=O)c1ccc(-c2ccccc2OCc2cn(CC3CC4(CO3)C(=O)Nc3ccccc34)nn2)nc1C (centres unmarked) [AB-O, Ethyl 2-methyl-6-(2-((1-((2′-oxo-4,5-dihydro-2H-spiro[furan-3,3′-indoline]-5-yl)methyl)-1H-1,2,3-triazol-4-yl)methoxy)phenyl)nicotinate]",cell death even at 25 uM,more cell death,potent inhibition,3.88 ± 0.01 µM,significantly decreased,accumulation of β-catenin,synergistic effect,decreased in a dose dependent manner,significantly reduced,synergistic effect,significantly decreased,50%,more effective
"COc1ccccc1N1CCN(CC2CC3(CO2)C(=O)Nc2ccccc23)CC1 (centres unmarked) [AB-U, 5-((4-(2-Methoxyphenyl)piperazin-1-yl)methyl)-4,5-dihydro-2H-spiro[furan-3,3′-indolin]-2′-one]",cell death even at 25 uM,more cell death,potent inhibition,4.92 ± 0.13 µM,significantly decreased,accumulation of β-catenin,synergistic effect,decreased in a dose dependent manner,significantly reduced,synergistic effect,significantly decreased,50%,more effective
